According to article PMC10485003, “Antibiotic hyper-resistance in a class I aminoacyl-tRNA synthetase with altered active site signature motif” (Nature Communications, 2023):
“And” between values parts separate entries of the source, which are not always exact repeats. Equal values may be shown once.

Columns and labels:
[1] = biological target: ScIleRS2; conditions: activation step, absence of tRNA; cited from earlier work
[2] = test system: IleRS2; experiment: Mupirocin inhibition of IleRS2 compared with IleRS1; assay type: biochemical, bacteria; conditions: IleRS1 strongly, IleRS2 modestly inhibited
[3] = biological target: T1, wt-HVGH TtIleRS2 (Thermus thermophilus, UniProt P56690); experiment: ATP-PPi exchange assay, mupirocin inhibition of amino acid activation; assay type: biochemical
T1 construct: hexa-histidine tag (pET28b(+)) (N); made in house; host or cells: E. coli Rosetta2 (DE3)
T1 sequence (P56690 1-1043): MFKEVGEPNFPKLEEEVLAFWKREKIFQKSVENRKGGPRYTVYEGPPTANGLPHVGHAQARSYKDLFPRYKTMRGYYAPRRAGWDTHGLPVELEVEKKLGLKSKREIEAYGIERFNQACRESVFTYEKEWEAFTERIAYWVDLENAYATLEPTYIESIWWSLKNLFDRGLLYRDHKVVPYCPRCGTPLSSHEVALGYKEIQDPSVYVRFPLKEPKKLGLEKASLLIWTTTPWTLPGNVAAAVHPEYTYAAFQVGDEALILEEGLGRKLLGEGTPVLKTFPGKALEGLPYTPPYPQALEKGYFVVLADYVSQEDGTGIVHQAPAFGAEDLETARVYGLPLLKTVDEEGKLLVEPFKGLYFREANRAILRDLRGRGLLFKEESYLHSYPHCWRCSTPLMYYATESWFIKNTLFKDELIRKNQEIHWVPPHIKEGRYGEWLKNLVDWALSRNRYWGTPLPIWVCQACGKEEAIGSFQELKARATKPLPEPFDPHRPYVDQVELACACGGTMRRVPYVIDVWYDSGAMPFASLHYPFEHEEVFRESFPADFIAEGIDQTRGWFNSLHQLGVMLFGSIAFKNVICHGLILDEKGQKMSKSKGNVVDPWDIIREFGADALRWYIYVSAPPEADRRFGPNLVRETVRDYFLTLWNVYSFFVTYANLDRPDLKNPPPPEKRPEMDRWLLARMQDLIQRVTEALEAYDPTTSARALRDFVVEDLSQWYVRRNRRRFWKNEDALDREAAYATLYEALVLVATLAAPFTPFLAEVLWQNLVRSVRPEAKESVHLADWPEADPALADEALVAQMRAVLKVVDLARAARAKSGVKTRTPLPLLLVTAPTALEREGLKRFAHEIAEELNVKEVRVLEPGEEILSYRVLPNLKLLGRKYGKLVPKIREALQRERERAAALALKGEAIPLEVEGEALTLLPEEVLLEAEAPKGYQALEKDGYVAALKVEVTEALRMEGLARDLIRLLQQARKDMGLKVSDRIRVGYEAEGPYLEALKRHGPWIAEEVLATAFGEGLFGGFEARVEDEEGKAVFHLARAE
Protocol: L-Ile and ATP concentrations ranged from 1/10 KM to 10 KM values. When measuring the KI towards one of the substrates, the other was held in saturation (concentrations at least 10 KM). The aliquots of the reaction mixture (1–2.5 μl) were quenched in 2 volumes of 500 mM NaOAc pH = 4.5, 0.1% SDS, and formed ^32P-ATP was separated from the remaining ^32P-PPi by thin-layer chromatography on Polygram CEL 300 PEI UV254 TLC plates (Macherey-Nagel, cat: 801063) using 750 mM KH2PO4 pH=3.5, 4 M urea buffer. Visualization and quantification of the signals was performed using a Typhoon Phosphoimager 5 (General Electric) and accompanying ImageQuant™ TL software (SV: 10.2). The kinetic constants were determined using a global fit option of the competitive inhibition model of GraphPad Prism 6 software (SV: 6.01). All experiments were performed in triplicates. The kcat was determined by dividing the maximal velocity, VM, with the used enzyme concentration. […]
variable substrate (ATP or Ile) was varied in the range of 0.1 KM to 10 KM. The other substrate (Ile or ATP) was kept in excess at 5 to 10 KM. Data were globally fitted to the competitive inhibition model using GraphPad prism 6.01 for Windows software. The values represent the average value ± SD of three independent experiments. Source data are provided as a Source Data file.

[4] = test system: E. coli IleRS1; set-up: method as in earlier work; conditions: activation step, absence of tRNA; cited from earlier work

C/C(=C\C(=O)OCCCCCCCCC(=O)O)C[C@@H]1OC[C@H](C[C@@H]2O[C@H]2[C@@H](C)[C@H](C)O)[C@@H](O)[C@H]1O [mupirocin]
Ki [1]: 8600 nM | difference in Ki between IleRS1 and IleRS2 [2]: 10^3−10^5 fold | Ki ([3]; KI (MUP)ATP, amino acid activation assay, ATP as variable substrate, average ± SD of three independent experiments): 200 ± 10 nM | Ki ([3]; KI (MUP)Ile, amino acid activation step, ATP/PPi exchange assay, Ile varied, ATP saturating, average ± SD of three independent experiments): 200 ± 10 nM | Ki ([3]; KI, single replicates, mupirocin inhibition towards Ile, GraphPad Prism output, Repl1-Repl3): 190 nM and 200 nM (3×) | initial velocity vo ([3]; c(mupirocin) 0.25 μM, c(ATP) 0.5 mM): 0.00545 mM/min and 0.00625 mM/min and 0.00878 mM/min | initial velocity vo ([3]; c(mupirocin) 0.25 μM, c(ATP) 1.0 mM): 0.00989 mM/min and 0.00933 mM/min and 0.0106 mM/min | initial velocity vo ([3]; c(mupirocin) 0.25 μM, c(ATP) 2.5 mM): 0.01904 mM/min and 0.0219 mM/min and 0.02129 mM/min | initial velocity vo ([3]; c(mupirocin) 0.25 μM, c(ATP) 5.0 mM): 0.03233 mM/min and 0.03269 mM/min and 0.0316 mM/min | initial velocity vo ([3]; c(mupirocin) 0.25 μM, c(ATP) 10.0 mM): 0.04434 mM/min and 0.04682 mM/min and 0.04511 mM/min | initial velocity vo ([3]; c(mupirocin) 0.25 μM, c(ATP) 15.0 mM): 0.0472 mM/min and 0.05017 mM/min and 0.05086 mM/min | initial velocity vo ([3]; c(mupirocin) 0.25 μM, c(Ile) 5.0 μM): 0.00612 mM/min and 0.00672 mM/min and 0.00733 mM/min | initial velocity vo ([3]; c(mupirocin) 0.25 μM, c(Ile) 15.0 μM): 0.0169 mM/min and 0.01596 mM/min | initial velocity vo ([3]; c(mupirocin) 0.5 μM, c(ATP) 0.5 mM): 0.00322 mM/min and 0.00373 mM/min and 0.00334 mM/min | initial velocity vo ([3]; c(mupirocin) 0.5 μM, c(ATP) 1.0 mM): 0.00754 mM/min and 0.00751 mM/min and 0.00747 mM/min | initial velocity vo ([3]; c(mupirocin) 0.5 μM, c(ATP) 2.5 mM): 0.01415 mM/min and 0.01653 mM/min and 0.01647 mM/min | initial velocity vo ([3]; c(mupirocin) 0.5 μM, c(ATP) 5.0 mM): 0.02341 mM/min and 0.024 mM/min and 0.02727 mM/min | initial velocity vo ([3]; c(mupirocin) 0.5 μM, c(ATP) 10.0 mM): 0.03666 mM/min and 0.03855 mM/min and 0.03894 mM/min | initial velocity vo ([3]; c(mupirocin) 0.5 μM, c(ATP) 15.0 mM): 0.04188 mM/min and 0.04379 mM/min and 0.0434 mM/min | initial velocity vo ([3]; c(mupirocin) 0.5 μM, c(Ile) 5.0 μM): 0.00349 mM/min and 0.00358 mM/min and 0.00422 mM/min | initial velocity vo ([3]; c(mupirocin) 0.5 μM, c(Ile) 15.0 μM): 0.01037 mM/min and 0.01135 mM/min and 0.01134 mM/min | initial velocity vo ([3]; c(mupirocin) 1.0 μM, c(ATP) 1.0 mM): 0.00403 mM/min and 0.00377 mM/min and 0.00474 mM/min | initial velocity vo ([3]; c(mupirocin) 1.0 μM, c(ATP) 2.5 mM): 0.00961 mM/min and 0.01146 mM/min and 0.01193 mM/min | initial velocity vo ([3]; c(mupirocin) 1.0 μM, c(ATP) 5.0 mM): 0.01986 mM/min and 0.02034 mM/min and 0.01615 mM/min | initial velocity vo ([3]; c(mupirocin) 1.0 μM, c(ATP) 10.0 mM): 0.02901 mM/min and 0.02831 mM/min and 0.02535 mM/min | initial velocity vo ([3]; c(mupirocin) 1.0 μM, c(ATP) 15.0 mM): 0.03565 mM/min and 0.03315 mM/min and 0.03301 mM/min | initial velocity vo ([3]; c(mupirocin) 1.0 μM, c(Ile) 5.0 μM): 0.0018 mM/min and 0.00161 mM/min and 0.00213 mM/min | initial velocity vo ([3]; c(mupirocin) 1.0 μM, c(Ile) 15.0 μM): 0.00627 mM/min and 0.00604 mM/min and 0.00608 mM/min | initial velocity vo ([3]; c(mupirocin) 1.0 μM, c(Ile) 50.0 μM): 0.01613 mM/min and 0.01634 mM/min and 0.01627 mM/min | initial velocity vo ([3]; c(mupirocin) 2.5 μM, c(ATP) 2.5 mM): 0.00405 mM/min and 0.00296 mM/min and 0.00525 mM/min | initial velocity vo ([3]; c(mupirocin) 2.5 μM, c(ATP) 5.0 mM): 0.00797 mM/min and 0.00918 mM/min and 0.01147 mM/min | initial velocity vo ([3]; c(mupirocin) 2.5 μM, c(ATP) 10.0 mM): 0.01533 mM/min and 0.01708 mM/min and 0.0168 mM/min | initial velocity vo ([3]; c(mupirocin) 2.5 μM, c(ATP) 15.0 mM): 0.02441 mM/min and 0.0241 mM/min and 0.02037 mM/min | initial velocity vo ([3]; c(mupirocin) 5.0 μM, c(ATP) 2.5 mM): 0.00309 mM/min and 0.0024 mM/min and 0.0026 mM/min | initial velocity vo ([3]; c(mupirocin) 5.0 μM, c(ATP) 5.0 mM): 0.00527 mM/min and 0.00709 mM/min and 0.00659 mM/min | initial velocity vo ([3]; c(mupirocin) 5.0 μM, c(ATP) 10.0 mM): 0.01002 mM/min and 0.00944 mM/min and 0.01333 mM/min | initial velocity vo ([3]; c(mupirocin) 5.0 μM, c(ATP) 15.0 mM): 0.01409 mM/min and 0.01329 mM/min | initial velocity vo ([3]; c(mupirocin) 5.0 μM, c(Ile) 5.0 μM): 0.00137 mM/min and 0.00102 mM/min and 0.00071 mM/min | initial velocity vo ([3]; c(mupirocin) 5.0 μM, c(Ile) 15.0 μM): 0.00213 mM/min and 0.00316 mM/min and 0.00307 mM/min | Ki [4]: 6 nM
